Source: patent publication US11000033B2, “Ketone or oxime compound, and herbicide” (NISSAN CHEMICAL CORPORATION, priority 2014, dated 2021)

Key:
Assay type in all cases: in vivo
[1] = system: Alopecurus myosuroides; assay: Test Example 4: herbicidal effect by soil treatment (symbol J); details: application herbicide amount 320 g/ha
Method in brief: (§1)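 Seeds were sown in sterilized diluvial soil, covered with about 1.5 cm of soil, and the soil surface was sprayed with a water-diluted emulsion of the compound at a predetermined rate. Plants grew in a greenhouse at 25° C. to 30° C.; effects were scored visually 3 weeks after application.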

[2] = system: rice plant; assay: Test Example 5: effect on crop by foliage application, plastic box (symbol b); details: 320 g/ha, 3 weeks after application
Method in brief: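 Greenhouse test at 25° C. to 30° C. Seeds of crops and weeds were spot-sown in boxes of sterilized diluvial soil under roughly 1.5 cm soil cover, then grown for foliage treatment.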

[3] = system: Chenopodium album; assay: Test Example 5: herbicidal effect by foliage application, plastic box (symbol O); details: 320 g/ha, 3 weeks after application
Method in brief: (§2)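 Sowing in sterilized diluvial soil, 14 days' greenhouse growth at 25° C. to 30° C., then uniform small-sprayer foliar application of aqueous emulsion dilution; plants scored three weeks afterwards.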

[4] = system: Alopecurus myosuroides; assay: Test Example 5: herbicidal effect by foliage application, plastic box (symbol J); details: 320 g/ha, 3 weeks after application
Method in brief: as §2

[5] = system: wheat; assay: Test Example 4: effect on crop by soil treatment (symbol e); details: application herbicide amount 320 g/ha
Method in brief: (§3)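 Greenhouse culture at 25° C. to 30° C. followed sowing of seed in spots on sterilized diluvial soil with a soil cover close to 1.5 cm thick.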

[6] = system: Leptochloa chinensis; assay: Test Example 3: herbicidal effect by foliage application, Wagner pot (symbol D); details: application herbicide amount 320 g/ha, Table 24
Method in brief: (§4)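 Foliar spray of a water-diluted emulsion at a predetermined herbicide amount, applied to 14-day-old plants. Seedlings were raised in flooded alluvial soil (0.1–0.5 cm water) at 25–30 °C in a greenhouse. Injury was rated after 3 weeks against fixed criteria.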

[7] = system: Echinochloa oryzacola Vasing.; assay: Test Example 2: herbicidal activity, application during weed generation in submerged conditions (symbol A); details: Table 23; application herbicide amount 320 g/ha; grade 0-5 by criteria of Test Example 1
Method in brief: (§5)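 Scoring of herbicidal effect took place 3 weeks after treatment, using the criteria of the earlier test. Treatment was water-surface application of diluted emulsifiable compound at a set dose. Plants were at one- to two-leaf stage in submerged alluvial soil (4 cm depth), greenhouse 25-30° C.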

[8] = system: Stellaria media; assay: Test Example 5: herbicidal effect by foliage application, plastic box (symbol P); details: 320 g/ha, 3 weeks after application
Method in brief: as §2

[9] = system: Echinochloa crus-galli var. crus-galli; assay: Test Example 3: herbicidal effect by foliage application, Wagner pot (symbol H); details: application herbicide amount 320 g/ha, Table 24
Method in brief: as §4

[10] = system: Digitaria ciliaris; assay: Test Example 4: herbicidal effect by soil treatment (symbol F); details: application herbicide amount 320 g/ha
Method in brief: as §1

[11] = system: Stellaria media; assay: Test Example 4: herbicidal effect by soil treatment (symbol P); details: application herbicide amount 320 g/ha
Method in brief: as §1

[12] = system: rice; assay: Test Example 4: effect on crop by soil treatment (symbol b); details: application herbicide amount 320 g/ha
Method in brief: as §3

[13] = system: Amaranthus retroflexus; assay: Test Example 5: herbicidal effect by foliage application, plastic box (symbol N); details: 320 g/ha, 3 weeks after application
Method in brief: as §2

[14] = system: Lolium multiflorum Lam.; assay: Test Example 4: herbicidal effect by soil treatment (symbol K); details: application herbicide amount 320 g/ha
Method in brief: as §1

[15] = system: Echinochloa crus-galli var. crus-galli; assay: Test Example 5: herbicidal effect by foliage application, plastic box (symbol H); details: 320 g/ha, 3 weeks after application
Method in brief: as §2

[16] = system: Setaria viridis; assay: Test Example 4: herbicidal effect by soil treatment (symbol G); details: application herbicide amount 320 g/ha
Method in brief: as §1

[17] = system: Avena fatua; assay: Test Example 4: herbicidal effect by soil treatment (symbol I); details: application herbicide amount 320 g/ha
Method in brief: as §1

[18] = system: Veronica persica; assay: Test Example 4: herbicidal effect by soil treatment (symbol R); details: application herbicide amount 320 g/ha
Method in brief: as §1

[19] = system: Scirpus juncoides; assay: Test Example 2: herbicidal activity, application during weed generation in submerged conditions (symbol B); details: Table 23; application herbicide amount 320 g/ha; grade 0-5 by criteria of Test Example 1
Method in brief: as §5

[20] = system: Monochoria vaginalis; assay: Test Example 2: herbicidal activity, application during weed generation in submerged conditions (symbol C); details: Table 23; application herbicide amount 320 g/ha; grade 0-5 by criteria of Test Example 1
Method in brief: as §5

| SMILES | Herbicidal effect grade, J: Alopecurus myosuroides [1] | b: directly sowed rice plant, effect on crop grade [2] | O: Chenopodium album, herbicidal effect grade [3] | J: Alopecurus myosuroides, herbicidal effect grade [4] | Effect on crop grade, e: wheat [5] | D (Leptochloa chinensis) herbicidal effect grade [6] | Herbicidal effect grade, A: Echinochloa oryzacola Vasing. [7] | P: Stellaria media, herbicidal effect grade [8] | H (Echinochloa crus-galli var. crus-galli) herbicidal effect grade [9] | Herbicidal effect grade, F: Digitaria ciliaris [10] | Herbicidal effect grade, P: Stellaria media [11] | Effect on crop grade, b: directly sowed rice plant [12] | N: Amaranthus retroflexus, herbicidal effect grade [13] | Herbicidal effect grade, K: Lolium multiflorum Lam. [14] | H: Echinochloa crus-galli var. crus-galli, herbicidal effect grade [15] | Herbicidal effect grade, G: Setaria viridis [16] | Herbicidal effect grade, I: Avena fatua [17] | Herbicidal effect grade, R: Veronica persica [18] | Herbicidal effect grade, B: Scirpus juncoides [19] | Herbicidal effect grade, C: Monochoria vaginalis [20] |
| --- | --- | --- | --- | --- | --- | --- | --- | --- | --- | --- | --- | --- | --- | --- | --- | --- | --- | --- | --- | --- |
| CC#Cc1cc(C)c(C2=C(O)CC(CC(=NOC)C3CC3)C2=O)c(C)c1 (stereo not drawn) [9-008] | 5 (Herbicidal ratio of 90% or more (almost completely withered)) | 5 (Herbicidal ratio of 90% or more (almost completely withered)) | 3 (Herbicidal ratio of 40% or higher and lower than 70%) | 5 (Herbicidal ratio of 90% or more (almost completely withered)) | 5 (Herbicidal ratio of 90% or more (almost completely withered)) | 5 (Herbicidal ratio of 90% or more (almost completely withered)) | 5 (Herbicidal ratio of 90% or more (almost completely withered)) | 4 (Herbicidal ratio of 70% or higher and lower than 90%) | 5 (Herbicidal ratio of 90% or more (almost completely withered)) | 5 (Herbicidal ratio of 90% or more (almost completely withered)) | 0 (Herbicidal ratio of 5% or lower (almost no effect)) | 5 (Herbicidal ratio of 90% or more (almost completely withered)) | 0 (Herbicidal ratio of 5% or lower (almost no effect)) | 5 (Herbicidal ratio of 90% or more (almost completely withered)) | 5 (Herbicidal ratio of 90% or more (almost completely withered)) | 5 (Herbicidal ratio of 90% or more (almost completely withered)) | 3 (Herbicidal ratio of 40% or higher and lower than 70%) | 3 (Herbicidal ratio of 40% or higher and lower than 70%) | 4 (Herbicidal ratio of 70% or higher and lower than 90%) | 3 (Herbicidal ratio of 40% or higher and lower than 70%) |
| CC(CC1CC(O)=C(c2c(C)cc(-n3cc(Cl)cn3)cc2C)C1=O)=NOCC(F)(F)F (stereo not drawn) [9-010] | 5 (Herbicidal ratio of 90% or more (almost completely withered)) | 5 (Herbicidal ratio of 90% or more (almost completely withered)) | 3 (Herbicidal ratio of 40% or higher and lower than 70%) | 5 (Herbicidal ratio of 90% or more (almost completely withered)) | 0 (Herbicidal ratio of 5% or lower (almost no effect)) | 5 (Herbicidal ratio of 90% or more (almost completely withered)) | 4 (Herbicidal ratio of 70% or higher and lower than 90%) | 3 (Herbicidal ratio of 40% or higher and lower than 70%) | 5 (Herbicidal ratio of 90% or more (almost completely withered)) | 5 (Herbicidal ratio of 90% or more (almost completely withered)) | 0 (Herbicidal ratio of 5% or lower (almost no effect)) | 5 (Herbicidal ratio of 90% or more (almost completely withered)) | 3 (Herbicidal ratio of 40% or higher and lower than 70%) | 5 (Herbicidal ratio of 90% or more (almost completely withered)) | 5 (Herbicidal ratio of 90% or more (almost completely withered)) | 5 (Herbicidal ratio of 90% or more (almost completely withered)) | 4 (Herbicidal ratio of 70% or higher and lower than 90%) | 0 (Herbicidal ratio of 5% or lower (almost no effect)) | 4 (Herbicidal ratio of 70% or higher and lower than 90%) | 1 (Herbicidal ratio of 5% or higher and lower than 20%) |
| CC#Cc1cc(C)c(C2=C(O)CC(CC(C)=NOCC(F)(F)F)C2=O)c(C)c1 (stereo not drawn) [9-011] | 5 (Herbicidal ratio of 90% or more (almost completely withered)) | 5 (Herbicidal ratio of 90% or more (almost completely withered)) | 1 (Herbicidal ratio of 5% or higher and lower than 20%) | 5 (Herbicidal ratio of 90% or more (almost completely withered)) | 4 (Herbicidal ratio of 70% or higher and lower than 90%) | 5 (Herbicidal ratio of 90% or more (almost completely withered)) | 5 (Herbicidal ratio of 90% or more (almost completely withered)) | 0 (Herbicidal ratio of 5% or lower (almost no effect)) | 5 (Herbicidal ratio of 90% or more (almost completely withered)) | 5 (Herbicidal ratio of 90% or more (almost completely withered)) | 0 (Herbicidal ratio of 5% or lower (almost no effect)) | 5 (Herbicidal ratio of 90% or more (almost completely withered)) | 2 (Herbicidal ratio of 20% or higher and lower than 40%) | 5 (Herbicidal ratio of 90% or more (almost completely withered)) | 5 (Herbicidal ratio of 90% or more (almost completely withered)) | 5 (Herbicidal ratio of 90% or more (almost completely withered)) | 3 (Herbicidal ratio of 40% or higher and lower than 70%) | 0 (Herbicidal ratio of 5% or lower (almost no effect)) | 5 (Herbicidal ratio of 90% or more (almost completely withered)) | 4 (Herbicidal ratio of 70% or higher and lower than 90%) |
